Activity calls are given as the source filed them. The rule behind the calls is not given here.
Key:
Assay type in all cases: cell-based
[1] = biological target: Sphingosine 1-phosphate receptor 1 (Homo sapiens) (UniProt P21453); test: In vitro binding affinity towards Endothelial differentiation G-protein coupled receptor 1 in CHO cells using [3H]S1P as radioligand relative to SIP; Not active
[2] = biological target: Sphingosine 1-phosphate receptor 3 (Homo sapiens) (UniProt Q99500); test: In vitro binding affinity towards Endothelial differentiation G-protein coupled receptor 3 in CHO cells using [3H]S1P as radioligand relative to SIP; Not active
Sphingosine 1-phosphate receptor 3 (Homo sapiens), sequence (Q99500 whole entry): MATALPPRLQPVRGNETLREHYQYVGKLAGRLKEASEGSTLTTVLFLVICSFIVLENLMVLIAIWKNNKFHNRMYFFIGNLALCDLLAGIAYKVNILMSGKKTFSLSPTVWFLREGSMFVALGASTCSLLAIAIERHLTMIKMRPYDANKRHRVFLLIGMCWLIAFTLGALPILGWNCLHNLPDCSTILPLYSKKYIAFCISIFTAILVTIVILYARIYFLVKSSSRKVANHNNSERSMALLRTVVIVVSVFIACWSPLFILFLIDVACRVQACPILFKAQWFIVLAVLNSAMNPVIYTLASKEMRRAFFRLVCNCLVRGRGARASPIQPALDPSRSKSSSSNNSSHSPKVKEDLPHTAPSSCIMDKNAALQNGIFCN

[3] = biological target: Sphingosine 1-phosphate receptor 2 (Homo sapiens) (UniProt O95136); test: In vitro binding affinity towards Endothelial differentiation G-protein coupled receptor 5 in CHO cells using [3H]S1P as radioligand relative to SIP; Not active
Sphingosine 1-phosphate receptor 2 (Homo sapiens), sequence (O95136 whole entry): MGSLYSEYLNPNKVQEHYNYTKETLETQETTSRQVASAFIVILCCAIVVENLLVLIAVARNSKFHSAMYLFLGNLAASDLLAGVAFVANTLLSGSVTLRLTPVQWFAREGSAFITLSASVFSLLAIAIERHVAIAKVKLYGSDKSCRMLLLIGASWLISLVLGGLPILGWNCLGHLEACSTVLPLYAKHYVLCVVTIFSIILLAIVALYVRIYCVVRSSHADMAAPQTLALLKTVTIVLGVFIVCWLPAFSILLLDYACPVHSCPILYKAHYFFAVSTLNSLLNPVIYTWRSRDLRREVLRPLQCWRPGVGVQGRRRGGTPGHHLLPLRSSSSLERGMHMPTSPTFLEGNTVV

[4] = biological target: Sphingosine 1-phosphate receptor 1 (Homo sapiens) (UniProt P21453); test: In vitro binding affinity towards Endothelial differentiation G-protein coupled receptor 1 in CHO cells using [3H]S1P as radioligand relative to SIP
[5] = biological target: Sphingosine 1-phosphate receptor 3 (Homo sapiens) (UniProt Q99500); test: In vitro binding affinity towards Endothelial differentiation G-protein coupled receptor 3 in CHO cells using [3H]S1P as radioligand relative to SIP
[6] = biological target: Sphingosine 1-phosphate receptor 2 (Homo sapiens) (UniProt O95136); test: In vitro binding affinity towards Endothelial differentiation G-protein coupled receptor 5 in CHO cells using [3H]S1P as radioligand relative to SIP

Sphingosine 1-phosphate receptor 1 (Homo sapiens), sequence (P21453 whole entry): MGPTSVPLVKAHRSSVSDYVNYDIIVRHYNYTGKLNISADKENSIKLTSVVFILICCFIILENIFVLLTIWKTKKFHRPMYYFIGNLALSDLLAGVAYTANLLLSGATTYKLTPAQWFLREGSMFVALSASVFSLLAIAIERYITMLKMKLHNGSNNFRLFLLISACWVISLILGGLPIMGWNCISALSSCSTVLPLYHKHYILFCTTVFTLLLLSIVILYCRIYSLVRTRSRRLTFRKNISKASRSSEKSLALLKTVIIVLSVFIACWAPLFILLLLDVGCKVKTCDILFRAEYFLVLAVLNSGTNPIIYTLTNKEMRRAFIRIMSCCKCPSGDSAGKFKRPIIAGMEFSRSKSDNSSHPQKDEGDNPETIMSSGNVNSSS

SMILES: CCCCCCCCCCCCCCC[C@H](O)[C@H](N)COP(=O)(O)O
- Relative binding affinity [1]: inactive
- Relative binding affinity [2]: inactive
- Relative binding affinity [3]: inactive

SMILES: CCCCCCCCCCCCCCC[C@H](O)[C@@H](N)COP(=O)(O)O
- Relative binding affinity [4]: 12%
- Relative binding affinity [5]: 51%
- Relative binding affinity [6]: 30%

SMILES: CCCCCCCCCCCCCCC[C@@H](O)[C@@H](N)COP(=O)(O)O
- Relative binding affinity [4]: 41%
- Relative binding affinity [5]: 86%
- Relative binding affinity [6]: 54%

SMILES: CCCCCCCCCCCCC/C=C/[C@H](O)[C@@H](N)COP(=O)(O)O
- Relative binding affinity [4]: 27%
- Relative binding affinity [5]: 46%
- Relative binding affinity [6]: 23%

SMILES: CCCCCCCCCCCCC/C=C/[C@@H](O)[C@@H](N)COP(=O)(OC)OC
- Relative binding affinity [1]: inactive
- Relative binding affinity [2]: inactive
- Relative binding affinity [3]: inactive

SMILES: CCCCCCCCCCCCCCCC[C@@H](N)COP(=O)(O)O
- Relative binding affinity [5]: 29%

SMILES: CCCCCCCCCCCCC/C=C/[C@H](O)[C@H](N)COP(=O)(O)O
- Relative binding affinity [4]: 7.4%
- Relative binding affinity [5]: 20%
- Relative binding affinity [6]: 41%

Source: ChEMBL document CHEMBL1136264, “Syntheses of sphingosine-1-phosphate stereoisomers and analogues and their interaction with EDG receptors” (Bioorg Med Chem Lett, 2003)
